Reference: ChEMBL document CHEMBL5104092, “An insight into the recent development of the clinical candidates for the treatment of malaria and their target proteins” (Eur J Med Chem, 2021)
≈ marks a conversion by molar mass, not a printed value. One block for each molecule: values may come before it.

Assays:
[1] = Dissociation constant, pKa of compound; type: physicochemical
Plasmodium falciparum [2] = assay: Antimalarial activity against Plasmodium falciparum NF54; type: functional, organism-based
Plasmodium falciparum [3] = assay: Antimalarial activity against Plasmodium falciparum K1; type: functional, organism-based
Plasmodium falciparum [4] = assay: In vivo antimalarial activity against Plasmodium falciparum infected in SCID mouse; type: functional
Plasmodium falciparum [5] = assay: Antimalarial activity against Plasmodium falciparum Dd2; type: functional, organism-based
HepG2 = assay: Cytotoxicity against human HepG2 cells; type: functional, cell-based
Plasmodium yoelii = assay: In vivo antimalarial activity against Plasmodium yoelii infected in mouse; type: functional
[6] = Inhibition of Plasmodium falciparum DHODH
[7] = Drug elimination in human urine assessed as unchanged fraction; type: ADME; settings: read-out: Drug excretion
[8] = Binding affinity to Plasmodium falciparum quadruple mutant DHFR assessed as inhibition constant
Plasmodium falciparum [9] = assay: Antimalarial activity against chloroquine resistant Plasmodium falciparum K1 incubated for 72 hrs by malaria SYBR green I nucleic acid staining dye based fluorescence assay; type: functional, organism-based; settings: K1, 72 h
Plasmodium falciparum [10] = assay: Antimalarial activity against chloroquine sensitive Plasmodium falciparum 3D7 incubated for 72 hrs by malaria SYBR green I nucleic acid staining dye based fluorescence assay; type: functional, organism-based; settings: 3D7, 72 h
Plasmodium falciparum [11] = assay: Antimalarial activity against chloroquine-sensitive Plasmodium falciparum 3D7 by Giemsa staining method; type: functional, organism-based
[12] = Inhibition of Plasmodium vivax DHODH
CYP450 = CYP450 (Homo sapiens, UniProt P04798+P05177+P05181+P08684+P10632+P10635+P11509+P11712+P13584+P20813+P20815+P20853+P24462+P24903+P33260+P33261+P51589+P78329+P98187+Q02928+Q08477+Q16678+Q16696+Q5TCH4+Q6VVX0+Q7Z449+Q8TAV3+Q96SQ9+Q9HB55); assay: Inhibition of CYP450 (unknown origin); type: ADME, protein assay
[13] = target: Voltage-gated inwardly rectifying potassium channel KCNH2 (Homo sapiens, UniProt Q12809); assay: Inhibition of human ERG; type: toxicity
[14] = Inhibition of Plasmodium vivax PI4K
Plasmodium falciparum [15] = assay: Antimalarial activity against chloroquine sensitive Plasmodium falciparum NF54 incubated for 48 hrs by SYBR green I fluorescence based assay; type: functional, organism-based; settings: NF54, 48 h
Plasmodium falciparum [16] = assay: Antimalarial activity against chloroquine resistant Plasmodium falciparum K1 incubated for 48 hrs by SYBR green I fluorescence based assay; type: functional, organism-based; settings: K1, 48 h
Plasmodium falciparum [17] = assay: Antimalarial activity against chloroquine resistant Plasmodium falciparum W2 incubated for 48 hrs by SYBR green I fluorescence based assay; type: functional, organism-based; settings: W2, 48 h
Plasmodium falciparum [18] = assay: Antimalarial activity against chloroquine resistant Plasmodium falciparum Dd2 incubated for 48 hrs by SYBR green I fluorescence based assay; type: functional, organism-based; settings: Dd2, 48 h
Plasmodium falciparum [19] = assay: In vivo antimalarial activity against Plasmodium falciparum infected in NMRI mouse; type: functional
[20] = Inhibition of Plasmodium falciparum DHODH expressed in Escherichia coli BL21 cells using L-dihydroorotate as substrate by DCIP staining method
Plasmodium falciparum [21] = assay: Antimalarial activity against Plasmodium falciparum 3D7 incubated for 72 hrs by SYBR-green method; type: functional, organism-based; settings: 3D7, 72 h
L6 = assay: Cytotoxicity against rat L6 cells; type: functional, cell-based
Plasmodium berghei = assay: In vivo antimalarial activity against Plasmodium berghei infected in Balb/C mouse model assessed as parasite clearance at 30 mg/kg, po administered every 24 hrs for 3 days followed by chloroquine addition measured on day 4 by flow cytometric analysis relative to control; type: functional; settings: time 4 day

Voltage-gated inwardly rectifying potassium channel KCNH2, sequence (Q12809 whole entry): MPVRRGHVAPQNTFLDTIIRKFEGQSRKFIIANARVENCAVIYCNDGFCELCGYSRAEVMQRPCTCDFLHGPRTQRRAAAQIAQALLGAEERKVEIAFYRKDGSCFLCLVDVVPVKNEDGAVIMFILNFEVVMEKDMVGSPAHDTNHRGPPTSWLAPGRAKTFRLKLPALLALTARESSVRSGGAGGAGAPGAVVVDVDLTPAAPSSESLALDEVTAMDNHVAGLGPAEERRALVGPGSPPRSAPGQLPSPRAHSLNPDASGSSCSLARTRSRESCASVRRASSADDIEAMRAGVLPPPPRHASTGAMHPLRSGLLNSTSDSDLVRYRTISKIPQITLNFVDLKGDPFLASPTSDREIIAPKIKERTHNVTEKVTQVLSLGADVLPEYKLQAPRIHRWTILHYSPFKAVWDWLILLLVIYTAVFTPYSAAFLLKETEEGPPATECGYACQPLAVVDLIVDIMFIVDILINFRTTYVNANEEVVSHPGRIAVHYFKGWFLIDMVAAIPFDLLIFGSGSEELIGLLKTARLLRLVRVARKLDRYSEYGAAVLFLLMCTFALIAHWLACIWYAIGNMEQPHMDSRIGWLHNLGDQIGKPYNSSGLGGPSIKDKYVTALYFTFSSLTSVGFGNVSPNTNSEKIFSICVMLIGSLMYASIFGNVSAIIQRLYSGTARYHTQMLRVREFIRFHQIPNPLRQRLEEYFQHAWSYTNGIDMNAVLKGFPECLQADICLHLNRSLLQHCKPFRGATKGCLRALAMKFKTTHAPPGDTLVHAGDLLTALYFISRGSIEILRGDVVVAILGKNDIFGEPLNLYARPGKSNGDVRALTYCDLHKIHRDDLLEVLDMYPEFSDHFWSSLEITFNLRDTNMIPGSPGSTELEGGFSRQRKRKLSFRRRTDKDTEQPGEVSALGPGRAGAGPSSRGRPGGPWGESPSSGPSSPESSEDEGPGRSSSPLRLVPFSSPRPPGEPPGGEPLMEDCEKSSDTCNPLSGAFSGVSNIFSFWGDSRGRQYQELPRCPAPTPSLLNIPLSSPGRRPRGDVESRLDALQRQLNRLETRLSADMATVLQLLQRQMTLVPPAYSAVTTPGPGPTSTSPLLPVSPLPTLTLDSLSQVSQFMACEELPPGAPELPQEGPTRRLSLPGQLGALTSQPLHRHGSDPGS

IC50 [6]: 23 nM
Structure (SMILES): NN1CN(c2ccc3ccccc3c2)C2=C(C(=O)CO2)C1=O

dose excreted [7]: < 1%
Structure (SMILES): CCN(CC)CCCC(C)Nc1cc(OC)cc2cccnc12 (centres undefined) [PAMAQUINE]

IC50 (Plasmodium falciparum [11]): 10 µg/mL (≈ 24.3 µM)
Structure (SMILES): CNNc1nc(NNC)nc(Nc2nc(-c3ccc(Cl)cc3Cl)cs2)n1

dose excreted [7]: < 1%
Structure (SMILES): COc1cc(NCCCCCNC(C)C)c2ncccc2c1 [PENTAQUINE]

IC50 [12]: 48.1 nM | IC50 (Plasmodium falciparum [2]): 1.8 nM | IC50 (Plasmodium falciparum [3]): 2.6 nM | IC50 (CYP450): > 10 µg/mL
Structure (SMILES): Cc1cc(Nc2ccc(S(F)(F)(F)(F)F)cc2)n2nc(C(C)(F)F)nc2n1 [DSM-265]
ED90 (Plasmodium falciparum [4]): 3 mg/kg | IC50 [13]: 1660 nM

dose excreted [7]: < 1%
Structure (SMILES): COc1cc(NC(C)CCCN)c2ncccc2c1 (centres undefined) [PRIMAQUINE]

pKa [1]: 7.2 | IC50 (Plasmodium falciparum [2]): 91.5 nM | IC50 (Plasmodium falciparum [3]): 9.6 nM
Structure (SMILES): CC(C)(C)c1cc(O)c(CN)c(C(C)(C)C)c1

Further lines, the molecule ahead of its results:

Structure (SMILES): CC(=O)N1CCN(c2ccc(CN(C(=O)/C=C/c3ccc(C(C)(C)C)cc3)[C@@H](Cc3ccccc3)C(=O)N3CCN(Cc4ccc(C#N)cc4)CC3)cc2)CC1
pKa [1]: 6.8 | IC50 (Plasmodium falciparum [2]): 0.4 nM | IC50 (Plasmodium falciparum [3]): 0.3 nM | ED90 (Plasmodium falciparum [4]): 3.7 mg/kg

Structure (SMILES): COc1cc2[nH]c(C)c(-c3ccc(Oc4ccc(OC(F)(F)F)cc4)cc3)c(=O)c2cc1Cl
EC50 (Plasmodium falciparum [5]): 2.5 nM | IC50 (HepG2): > 10000 nM | ED90 (Plasmodium yoelii): 0.02 mg/kg

Structure (SMILES): CCc1nc(N)nc(N)c1OCCCOc1ccccc1CCC(=O)O
pKa [1]: 4.5 | Ki [8]: 0.54 nM

Structure (SMILES): CC1CCN(C[C@@H](CC2CCCCC2)Nc2ccnc3cc(Cl)ccc23)CC1
IC50 (Plasmodium falciparum [9]): 7 nM | IC50 (Plasmodium falciparum [10]): 938 nM

Structure (SMILES): Cc1nc(Nc2ncc(N3CCN(C)[C@H](C)C3)c(Nc3cc(C)n(C)n3)n2)cc(C2CC2)c1F [SUTIDIAZINE]
pKa [1]: 8.4 | IC50 (Plasmodium falciparum [2]): 9 nM | IC50 (Plasmodium falciparum [3]): 15 nM

Structure (SMILES): CC1CCCN(C[C@H](C)Nc2ccnc3cc(Cl)ccc23)C1 (some centres undefined)
IC50 (Plasmodium falciparum [9]): 21 nM | IC50 (Plasmodium falciparum [10]): 14 nM

Structure (SMILES): CS(=O)(=O)c1ccc(-c2cnc(N)c(-c3ccc(C(F)(F)F)nc3)c2)cc1 [MMV-048]
ED90 (Plasmodium falciparum [4]): 0.57 mg/kg | IC50 [14]: 3.4 nM

Structure (SMILES): c1cc([C@H]2CC[C@]3(CC2)OO[C@]2(O3)C3CC4CC(C3)CC2C4)ccc1OCCN1CCOCC1 [ARTEFENOMEL]
pKa [1]: 7 | IC50 (Plasmodium falciparum [2]): 4.6 nM | IC50 (Plasmodium falciparum [3]): 3.8 nM

Structure (SMILES): C[C@H]1[C@H](N2CCNCC2)O[C@@H]2O[C@]3(C)CC[C@H]4[C@H](C)CC[C@@H]1[C@@]24OO3
IC50 (Plasmodium falciparum [15]): 3.1 nM | IC50 (Plasmodium falciparum [16]): 1.9 nM | IC50 (Plasmodium falciparum [17]): 1.4 nM | IC50 (Plasmodium falciparum [18]): 1.7 nM

Structure (SMILES): C[C@H]1Cc2c([nH]c3cc(Cl)c(F)cc23)[C@@]2(N1)C(=O)Nc1ccc(Cl)cc12 [CIPARGAMIN]
pKa [1]: 4.6 | ED90 (Plasmodium falciparum [19]): 2.7 mg/kg

Structure (SMILES): Cc1nc(Nc2ccc(S(F)(F)(F)(F)F)cc2)c2c(C)noc2n1
IC50 [20]: 36 nM | EC50 (Plasmodium falciparum [21]): 17 nM

Structure (SMILES): CC(=O)N1CCN(c2ccc(CN(C(=O)/C=C/c3ccc(C(F)(F)F)cc3)[C@@H](Cc3ccccc3)C(=O)N3CCN(Cc4ccc(N(C)CCO)cc4)CC3)cc2)CC1
pKa [1]: 7.5 | IC50 (Plasmodium falciparum [2]): 10 nM | IC50 (Plasmodium falciparum [3]): 0.46 nM | ED90 (Plasmodium falciparum [4]): 8.4 mg/kg | IC50 (L6): 8850 nM

Structure (SMILES): CN1CCN(c2nc(Cl)cc(NCCNc3ccnc4cc(Cl)ccc34)n2)CC1
Activity (Plasmodium berghei): 93.9%
